Assays:
[1] = tested on: LM2 and MDA-MB-231 breast cancer cell lines; test: PAICS 2D cell proliferation assay (CellTiter-Glo viability, 72 h); type: cell-based; conditions: Homo sapiens; 72 h incubation; cell line not given
Method: PAICS 2D Cell Proliferation Assay
Frozen cryovial stocks of LM2 and MDA-MB-231 breast cancer cell lines were thawed and cultured in 4.5 g/L glucose DMEM (31966-047, Invitrogen) supplemented with 10% Fetal Bovine Serum (10500-064, Invitrogen) until confluent in a T175 flask. Cells were incubated at 37° C. with 5% CO2 in a humidified incubator.
Cells were collected from T175 flasks by washing with PBS (10010-056, Invitrogen) and dissociated using Accutase (A6964, Sigma Aldrich). This was followed by centrifuging (1200 rpm, 5 min) and resuspending the cells in 10 ml of media containing 1% penicillin/streptomycin (15140-122, Invitrogen). Cells were counted by trypan blue exclusion method using an automated cell counter (Cellometer) and diluted to a concentration of 40,000/ml. 1000 cells were then seeded into 384-well white-walled plates (Corning, 3707) in a volume of 25 μl. Plates were Incubated overnight at 37° C. with 5% CO2.
After 24 hours, PAICS compounds were added onto the assay plates using an HP D300 Digital Dispenser (Hewlett Packard). 10 mM stocks were used and dispensed as a 10 point concentration response curve (CRC) ½ log dilution series with a final top concentration of 100 μM. Controls were added onto each plate: positive controls included Staurosporine CRC (100 μM stock dispensed as a 10 point CRC ½ log dilution series with a final top concentration of 1 μM) and PAICS compound MRT00211919 (10 mM stock dispensed as a 10 point CRC ½ log dilution series with a final top concentration of 100 μM); a high control of Staurosporine (0.1 μM (LM2), 0.316 μM (MDA-MB-231) FAC) and a low control of media containing 1% DMSO. A final concentration of 1% DMSO was then added across the plates for normalisation. Following compound addition, assay plates were incubated for 72 hours at 37° C. with 5% CO2.
Day 5—Cytotoxicity and Cell Viability Assays
After 72 h incubation, dead and viable cells were measured in each assay plate. Cytotoxicity was assessed through fluorescent DNA staining using the CellTox™ Green Cytotoxicity Assay kit (G8743, Promega) following the manufacturer's multiplexing protocol. Impaired cell membrane integrity results in the access of dye to stain DNA allowing quantification of dead cells. Cell viability was determined following ATP quantification using the CellTiter-Glo® Luminescent Cell Viability Assay kit (G7572, Promega) following the manufacturer's protocol. ATP released from lysed cells allowed for the generation of a signal proportional to the number of cells present in the well. All endpoint reads were performed using the PheraSTAR Plus (BMG Labtech). Data is expressed as % viable cells and % dead cells against controls (mean±SEM of duplicate curves).

WT full length PAICS = WT full length PAICS (Homo sapiens (Human), UniProt P22234); test: Biochemical assay to measure PAICS activity (Transcreener ADP2 FI); conditions: SAICAR synthetase reaction, ADP detection, 30 min pre-incubation
Description: Biochemical Assay to Measure PAICS Activity
The biochemical assay was used to measure PAICS SAICAR synthetase-mediated conversion of CAIR, aspartic acid and ATP to SAICAR, ADP and inorganic phosphate (Pi), post-AIR/CAIR equilibration (see FIG. 3). This was achieved by detecting the ADP generated during the reaction, using Bellbrook Lab's Transcreener ADP^2 FI assay. An increase in the fluorescence intensity is directly proportional to the amount of PAICS activity.
The Transcreener ADP^2 FI assay is a homogeneous competitive displacement fluorescence intensity assay which uses direct immunodetection of ADP. Displacement of the tracer by ADP causes an increase in the fluorescence at excitation 590 nm and emission 617 nm (FIG. 3).
5 μl WT full length PAICS (final assay concentration, fac, 2.5 nM) in basic buffer, added to black, non-binding, 384-well plates (Corning #3575), columns 1 to 22. 5 μl basic buffer was added to columns 23+24 (negative control). PAICS stock at 31.9 μM from the PI's lab (Steve Firestine). Basic buffer contained 50 mM Tris-HCl pH8 and 0.5 mM EDTA, fac.
1 μl compound in 100% DMSO added per well, or 1 μl 100% DMSO to positive controls (columns 1+2) and negative controls (columns 23+24). Final assay top concentration of compound either 1 mM or 30-μM, serially diluted with half-log dilutions across the plate in duplicate (one 10-point concentration response curve across wells 3 to 12, another across 13 to 22). Compounds pre-incubated with PAICS enzyme for 30 mins at RT. 2 μl CAIR added (fac 10 μM) in basic buffer plus 25 mM MgCl2 and 50 mM KHCO3 fac to all wells. CAIR stock 50 mM from Steve Firestine's lab. 1 hr RT incubation for AIR-CAIR equilibration. NB: ˜50% CAIR is decarboxylated during equilibration therefore 5 μM remains for the synthetase reaction.
2 μl ATP/aspartic acid added (fac 30 μM/180 μM) in reaction buffer to all wells. 30 mins RT incubation for appropriate level of ATP turnover. Reaction buffer contained basic buffer plus 10 mM DTT, 0.01% BSA and 0.01% Brij 35, fac.
10 μl ADP detection reagent added to all wells (as per instructions, Transcreener ADP^2 FI kit, BellBrook Labs #3013-10K). Incubation for 1 h at RT to allow antibody equilibration. Fluorescence intensity determined using a Tecan Safire2 (excitation at 590 nm, emission at 617 nm).

[2] = tested on: wild type LM2 and CRISPR edited LM2; test: 2D cell proliferation assay, wild type LM2 versus PAICS CRISPR edited LM2; type: cell-based, human; conditions: LM2 cells, PAICS CRISPR edited vs wild type
Method: Cas9 nuclease-mediated gene editing (Sander and Joung, 2014) was performed using a CRISPR RNA guide sequence ([…], PAM: AGG) targeting exon 3 in the human PAICS gene (accession number: NM_006452).
Stable cell clones were isolated and gene disruption confirmed by DNA sequencing and the absence of PAICS cellular protein expression confirmed by Western blotting.
A small set of compounds were tested against wild type LM2 and CRISPR edited LM2 in the 2D cell proliferation assay to establish to what extent the cellular potency was driven by PAICS mediated effects. The data is shown in Table 2: compounds tested had no effect on CRISPR edited cells, confirming the on-targets effect as being PAICS mediated.

Chain of WT full length PAICS (P22234 whole entry): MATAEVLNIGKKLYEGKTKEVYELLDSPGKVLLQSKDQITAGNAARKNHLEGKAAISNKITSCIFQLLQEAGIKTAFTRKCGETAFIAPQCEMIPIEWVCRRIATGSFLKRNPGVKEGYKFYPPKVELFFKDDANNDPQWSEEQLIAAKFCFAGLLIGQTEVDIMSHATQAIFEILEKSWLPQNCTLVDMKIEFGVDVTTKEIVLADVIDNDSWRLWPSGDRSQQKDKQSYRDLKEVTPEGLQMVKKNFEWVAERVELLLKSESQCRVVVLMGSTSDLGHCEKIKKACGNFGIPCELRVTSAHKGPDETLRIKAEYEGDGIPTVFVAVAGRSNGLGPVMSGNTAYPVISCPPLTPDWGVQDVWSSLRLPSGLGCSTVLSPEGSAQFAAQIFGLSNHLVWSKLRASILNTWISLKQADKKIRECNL

| EC50 [1] | IC50 (WT full length PAICS) | SMILES | Potency shift: CRISPR Cell EC50/WT Cell EC50 [2] |
| --- | --- | --- | --- |
| 100 to 250 nM | 10 to 25 nM | CN(C)CCCOC(=O)N1CCN(c2ccc(Br)c(NC(=O)c3coc(N)n3)c2)CC1 [Example 24, 3-(Dimethylamino)propyl 4-(3-(2-aminooxazole-4-carboxamido)-4-bromophenyl)piperazine-1-carboxylate] | >500 |
| 250 to 500 nM | 10 to 25 nM | Nc1nc(C(=O)Nc2cc(N3CCN(S(=O)(=O)C4CCNCC4)CC3)ccc2Cl)co1 [Example 86, 2-Amino-N-{2-chloro-5-[4-(piperidin-4-ylsulfonyl)piperazin-1-yl]phenyl}-1,3-oxazole-4-carboxamide] | – |
| 500 to 1000 nM | 25 to 100 nM | Nc1nc(C(=O)Nc2cc(N3CCN(C(=O)OCCNC4CC4)CC3)ccc2Cl)co1 [Example 35, 2-(Cyclopropylamino)ethyl 4-(3-{[(2-amino-1,3-oxazol-4-yl)carbonyl]amino}-4-chlorophenyl)piperazine-1-carboxylate] | – |
| 100 to 250 nM | 10 to 25 nM | Nc1nc(C(=O)Nc2cc(N3CCN(C(=O)OCCNC4CC4)CC3)ccc2Br)co1 [Example 21, 2-(Cyclopropylamino)ethyl 4-(3-{[(2-amino-1,3-oxazol-4-yl)carbonyl]amino}-4-bromophenyl)piperazine-1-carboxylate] | – |
| 500 to 1000 nM | > 100 nM | Nc1nc(C(=O)Nc2cc(N3CCN(C(=O)OCC4CNC4)CC3)ccc2Cl)co1 [Example 19, Azetidin-3-ylmethyl 4-(3-(2-aminooxazole-4-carboxamido)-4-chlorophenyl) piperazine-1-carboxylate] | – |
| < 100 nM | < 10 nM | CC(C)NCCS(=O)(=O)N1CCN(c2ccc(Br)c(NC(=O)c3coc(N)n3)c2)CC1 [Example 63] | – |
| < 100 nM | < 10 nM | CCNCCCS(=O)(=O)N1CCN(c2ccc(Br)c(NC(=O)c3coc(N)n3)c2)CC1 [Example 70, 2-Amino-N-[2-bromo-5-(4-{[3-(ethylamino)propyl]sulfonyl}piperazin-1-yl)phenyl]-1,3-oxazole-4-carboxamide] | – |
| 100 to 250 nM | 10 to 25 nM | CN(C)CCOC(=O)N1CCN(c2ccc(Br)c(NC(=O)c3coc(N)n3)c2)CC1 [Example 23, 2-(Dimethylamino)ethyl 4-(3-(2-aminooxazole-4-carboxamido)-4-bromophenyl)piperazine-1-carboxylate] | >500 |
| < 100 nM | < 10 nM | CCN(CC)CCCS(=O)(=O)N1CCN(c2ccc(Br)c(NC(=O)c3coc(N)n3)c2)CC1 [Example 77, 2-Amino-N-[2-bromo-5-(4-{[3-(diethylamino)propyl]sulfonyl}piperazin-1-yl)phenyl]-1,3-oxazole-4-carboxamide] | – |
| 250 to 500 nM | 10 to 25 nM | CNCCS(=O)(=O)N1CCN(c2ccc(Cl)c(NC(=O)c3coc(N)n3)c2)CC1 [Example 56, 2-Amino-N-[2-chloro-5-(4-{[2-(methylamino)ethyl]sulfonyl}piperazin-1-yl)phenyl]-1,3-oxazole-4-carboxamide] | – |
| 250 to 500 nM | 10 to 25 nM | CN1CCC(S(=O)(=O)N2CCN(c3ccc(Cl)c(NC(=O)c4coc(N)n4)c3)CC2)CC1 [Example 87, 2-Amino-N-{2-chloro-8-(4-[(1-methylpiperidin-4-yl)sulfonyl]piperazin-1-yl}phenyl)-1,3-oxazole-4-carboxamide] | – |
| 500 to 1000 nM | 25 to 100 nM | Nc1nc(C(=O)Nc2cc(N3CCN(S(=O)(=O)CCNC4CC4)CC3)ccc2Cl)co1 [Example 58, 2-Amino-N-[2-chloro-5-(4-{[2-(cyclopropylamino)ethyl]sulfonyl}piperazin-1-yl)phenyl]-1,3-oxazole-4-carboxamide] | – |
| 250 to 500 nM | 10 to 25 nM | CNCCCS(=O)(=O)N1CCN(c2ccc(Cl)c(NC(=O)c3coc(N)n3)c2)CC1 [Example 73, 2-Amino-N-[2-chloro-5-(4-{[3-(methylamino)propyl]sulfonyl}piperazin-1-yl)phenyl]-1,3-oxazole-4-carboxamide] | – |
| 100 to 250 nM | < 10 nM | CN1CCC(S(=O)(=O)N2CCN(c3ccc(Br)c(NC(=O)c4coc(N)n4)c3)CC2)CC1 [Example 85, 2-Amino-N-(2-bromo-5-{4-[(1-methylpiperidin-4-yl)sulfonyl]piperazin-1-yl}phenyl)-1,3-oxazole-4-carboxamide] | – |
| 500 to 1000 nM | 25 to 100 nM | Nc1nc(C(=O)Nc2cc(N3CCN(C(=O)OC4CCNC4)CC3)ccc2Cl)co1 (stereo not shown) [Example 32, Pyrrolidin-3-yl 4-(3-{[(2-amino-1,3-oxazol-4-yl)carbonyl]amino}-4-chlorophenyl)piperazine-1-carboxylate] | – |
| 100 to 250 nM | < 10 nM | CC(C)NCCCS(=O)(=O)N1CCN(c2ccc(Cl)c(NC(=O)c3coc(N)n3)c2)CC1 [Example 72, 2-Amino-N-[2-chloro-5-(4-{[3-(propan-2-ylamino)propyl]sulfonyl}piperazin-1-yl)phenyl]-1,3-oxazole-4-carboxamide] | – |
| 250 to 500 nM | < 10 nM | CCNCCCS(=O)(=O)N1CCN(c2ccc(Cl)c(NC(=O)c3coc(N)n3)c2)CC1 [Example 74] | – |
| 100 to 250 nM | > 100 nM | Nc1nc(C(=O)Nc2cc(N3CCN(C(=O)OC4CNC4)CC3)ccc2Cl)co1 [Example 22, Azetidin-3-yl 4-(3-{[(2-amino-1,3-oxazol-4-yl)carbonyl]amino}-4-chlorophenyl)piperazine-1-carboxylate] | – |
| < 100 nM | < 10 nM | CNCCS(=O)(=O)N1CCN(c2ccc(Br)c(NC(=O)c3coc(N)n3)c2)CC1 [Example 55, 2-Amino-N-[2-bromo-5-(4-{[2-(methylamino)ethyl]sulfonyl}piperazin-1-yl)phenyl]-1,3-oxazole-4-carboxamide] | >500 |
| 500 to 1000 nM | 10 to 25 nM | CN1CC(CN2CCN(c3ccc(Br)c(NC(=O)c4coc(N)n4)c3)CC2=O)C1 [Example 44] | – |
